Data taken from patent US10697970B2, “S100A9 levels for predicting lenalidomide and erythropoietin responsiveness” (H. LEE MOFFITT CANCER CENTER AND RESEARCH INSTITUTE, INC., priority 2015, dated 2020).
One block for each compound: values may come before it.

What was measured:
[1] = tested on: SF3B1-K700E mutant-expressing BM cells; assay: Nuclear β-catenin confocal microscopy in SF3B1-K700E BM cells; assay type: cell-based, mouse; conditions: 24 hours treatment
Protocol: (§1) MDS and normal donor BM-MNC and mouse BM cells were stained with 30×FAM-FLICA® Caspase-1 solution at a ratio of 1:30 for 2 hours at 37° C. Cells were washed and cytospins were generated using a 5 minutes centrifugation at 450 rpm. Slides were fixed at 37° C. for 10 minutes using BD Cytofix Fixation Buffer (BD Biosciences), and subsequently washed using PBS. Cells were permeabilized with 0.1% Triton X-100/2% BSA in PBS for 15 minutes at room temperature. After washing with PBS, cells were blocked using 2% BSA in PBS for 30 minutes at room temperature, and washed again. Cells were incubated with the appropriate primary antibody overnight (1:400 for NLRP3, 1:20 for β-catenin) at 4° C. The next day, cells were washed with PBS and incubated with the appropriate secondary antibodies (1:500) for 1 hour at room temperature. After washing, cells were covered with ProLong Gold Antifade Reagent with DAPI prior to the addition of a coverslip (Life Technologies). Co-localization of a-caspase-1 with NLRP3 inflammasome complexes was assessed using a Leica TCS SP5 AOBS Laser Scanning Confocal microscope (Leica Microsystems). Analysis of the inflammasome images was performed with Definiens Developer 2.0 (Definiens AG). The software was used to segment cells based on brightness and size thresholds, followed by a watershed segmentation algorithm. […]

[2] = tested on: SF3B1-K700E mutant-expressing BM cells; assay: ASC staining flow cytometry (inflammasome formation) in SF3B1-K700E BM cells; assay type: cell-based, mouse; conditions: 24 hours treatment
Protocol: Staining was carried out as described ([…], et al. J Immunol. 2015 194(1):455-62). Briefly, cell pellets were resuspended in 1 mL of prewarmed BD Permeabilization Buffer III, and incubated on ice for 30 minutes. Cells were washed 2× with staining buffer. Following washing, cells were stained with rabbit-anti-ASC primary antibodies at a 1:1500 dilution and incubated for 90 minutes. Cells were washed, stained with secondary antibodies at a dilution of 1:1500, and incubated for 45 minutes. Cells were washed, and sample acquisitions were carried out using a BD LSR II flow cytometer and FACSDiva software.

[3] = tested on: SF3B1-K700E-expressing mutant BM cells; assay: ROS detection in SF3B1-K700E BM cells; assay type: cell-based, mouse
Source text: (§2) ROS were detected using CM-H2DCFDA and Cell ROX® Deep Red Reagent according to manufacturer's protocol (Life Technologies).

U2AF1-S34F mutant cells = assay: Nuclear β-catenin confocal microscopy in U2AF1-S34F mutant TF-1 cells; assay type: cell-based; conditions: 24 hours treatment
normal BM-MNC [4] = assay: Nuclear β-catenin confocal microscopy in normal BM-MNC; assay type: cell-based, human
Protocol: as §1

HepG2 cells = assay: Epo elaboration by HepG2 cells (ELISA); assay type: cell-based, human; conditions: for suppression of Epo production by the inflammatory protein alone: HepG2, vehicle control arm of lenalidomide experiment, S100A9 1 μg/ml or TNFα 10 ng/ml
Protocol: HepG2 cells, acquired from American Type Culture Collection (ATCC, Manassas, Va.), were grown in EMEM supplemented with 10% FBS and 1% penicillin/streptomycin solution. Cells were maintained at 37° C. under 5% CO2.
Quantitation of human S100A9/MRP14 in patient serum and supernatant of the HepG2 cell line was performed using CircuLex S100A9/MRP14 ELISA Kit (MBL, Nagano, Japan). Quantitative measurement of human TNFα and IL-1β from serum patients and supernatant of HepG2 cell line were performed using Human IL-1β ELISA Kit and Human TNFα ELISA Kit (Life Technologies, Carlsbad, Calif., USA). Quantitation of human Epo in patient serum and HepG2 cell line supernatant was performed using Human Erythropoietin ELISA kit (Stemcell Technologies, Vancouver, BC, Canada). All samples were performed in duplicate.

MDS patients = conditions: MDS patients; cited from earlier work
[5] = tested on: BM cells isolated from WT mice; assay: a-caspase-1/NLRP3 confocal microscopy in WT mouse BM cells treated with rhS100A9; assay type: cell-based; conditions: 5 μg/mL rhS100A9, 24 hours
Protocol: (§3) MDS and normal donor BM-MNC and mouse BM cells were stained with 30×FAM-FLICA® Caspase-1 solution at a ratio of 1:30 for 2 hours at 37° C. Cells were washed and cytospins were generated using a 5 minutes centrifugation at 450 rpm. Slides were fixed at 37° C. for 10 minutes using BD Cytofix Fixation Buffer (BD Biosciences), and subsequently washed using PBS. Cells were permeabilized with 0.1% Triton X-100/2% BSA in PBS for 15 minutes at room temperature. After washing with PBS, cells were blocked using 2% BSA in PBS for 30 minutes at room temperature, and washed again. Cells were incubated with the appropriate primary antibody overnight (1:400 for NLRP3, 1:20 for β-catenin) at 4° C. The next day, cells were washed with PBS and incubated with the appropriate secondary antibodies (1:500) for 1 hour at room temperature. After washing, cells were covered with ProLong Gold Antifade Reagent with DAPI prior to the addition of a coverslip (Life Technologies). Co-localization of a-caspase-1 with NLRP3 inflammasome complexes was assessed using a Leica TCS SP5 AOBS Laser Scanning Confocal microscope (Leica Microsystems). Analysis of the inflammasome images was performed with Definiens Developer 2.0 (Definiens AG). The software was used to segment cells based on brightness and size thresholds, followed by a watershed segmentation algorithm. Intensity values and Pearson's correlation coefficient were extracted from the segmented cells. For β-catenin image analysis, confocal images were imported into Definiens Tissue Studio v3.0, 64 Dual in .tif format. Cells were separated from background using the RGB thresholds. Nuclei were identified by setting thresholds in the DAPI channel. Typical cells averaged 60 microns. The red intensity (β-catenin) in the nucleus and cytoplasm was established by setting thresholds to low, medium and high in the red channel on a scale of 0-255 in the red channel.

normal BM-MNC [6] = assay: a-caspase-1/NLRP3 confocal microscopy in normal BM-MNC treated with rhS100A9; assay type: cell-based, human; conditions: 5 μg/mL rhS100A9, 24 hours
Protocol: as §3

U937 cells [7] = assay: Comet assay (DNA damage) in U937 cells; assay type: cell-based; conditions: U937, 5 μg/mL rhS100A9, 24 hours, compared to untreated cells
Protocol: Monocytic U937 cells were treated with 5 μg/mL rhS100A9 for 24 hr. DNA damage was measured by single cell gel electrophoresis using alkaline CometAssay® according to manufacturer's protocol (Trevigen Inc.).

U937 cells [8] = assay: a-caspase-1/NLRP3 confocal microscopy (inflammasome formation) in U937 cells; assay type: cell-based; conditions: U937, 5 μg/mL rhS100A9, 24 hours
U937 cells [9] = assay: ROS detection by flow cytometry in U937 cells; assay type: cell-based; conditions: U937, 5 μg/mL rhS100A9, 24 hours, compared to untreated cells
Source text: as §2

U937 cells [10] = assay: Nuclear β-catenin confocal microscopy in U937 cells; assay type: cell-based; conditions: U937, 5 μg/mL rhS100A9, 24 hours, compared to untreated cells
U937 cells [11] = assay: Pyroptosis / active caspase-1 flow cytometry in U937 cells treated with rhS100A9; assay type: cell-based
Protocol: Monocytic U937 cells were treated with the indicated concentrations of rhS100A9 for 24 hours, or with 5 μg/mL rhS100A9 for the indicated time points. Subsequently, cells were stained with 30×FAM-FLICA® Caspase-1 solution at a ratio of 1:30 for 2 hours at 37° C. Cells were washed, resuspended in 1× binding buffer, and stained with Annexin-V:PE at a dilution of 1:30 for 15 minutes at room temperature. 1× binding buffer was added to a final volume of 350 μL. Sample acquisitions were carried out using a BD FACSCalibur flow cytometer (BD Biosciences). Data were analyzed using FlowJo 9.7.5 software.

normal BM-MNC [12] = assay: qPCR of pyroptosis-associated genes in normal BM-MNC treated with rhS100A9; assay type: cell-based, human; conditions: normal BM-MNC (n=2), 1 μg/mL rhS100A9, 24 hours
Protocol: RNA was isolated from BM-MNC using the RNeasy Mini Kit (Qiagen). cDNA was produced using the iScript cDNA Synthesis Kit (Bio-Rad). Sequences for primers can be found in Table 1. GAPDH mRNA was used for transcript normalization. cDNA was amplified using the iQ SYBR Green Supermix and the CFX96 Real-Time PCR Detection System (Bio-Rad). PCR conditions were as follows: 10 minutes at 95° C., followed by 40 cycles of amplification (15 seconds at 95° C. and 1 minute at 60° C.). Relative gene expression was calculated using the […] method.

U937 cells [13] = assay: Pore formation assay (ethidium bromide uptake) in U937 cells; assay type: cell-based; conditions: U937, 12.5 μg/mL EB, 5 μg/mL rhS100A9
[14] = U937, increasing concentrations of rhS100A9, 24 hours

Compound: c1ccc2c(c1)[I+]c1ccccc1-2 [DPI]
percentage of cells with elevated levels of nuclear β-catenin [1]: significantly reduced | inflammasome formation (ASC) [2]: significantly reduced | mean percentage of ROS+ cells and ROS MFI [3]: extinguished below the level of WT controls | β-catenin activation in mutant cells (U2AF1-S34F mutant cells): effectively reduced

Compound: CC(=O)N[C@@H](CS)C(=O)O [NAC, N-acetylcysteine]
percentage of cells with elevated levels of nuclear β-catenin [1]: significantly reduced | S100A9-triggered nuclear translocation of β-catenin (normal BM-MNC [4]; normal BM-MNC treated with S100A9 plus anti-oxidant): abolished | inflammasome formation (ASC) [2]: significantly reduced | mean percentage of ROS+ cells and ROS MFI [3]: extinguished below the level of WT controls | β-catenin activation in mutant cells (U2AF1-S34F mutant cells): effectively reduced

Compound: IL-1β: inflammatory cytokine interleukin-1β purchased from Sigma-Aldrich
reduction in Epo elaboration (HepG2 cells; HepG2, 10 ng/ml, 24 h exposure): 60%

Compound: TNFα
reduction in Epo elaboration (HepG2 cells; HepG2, 10 ng/ml, 24 h exposure): 40% | suppression of Epo production by the inflammatory protein alone (HepG2 cells): 30%

Compound: erythropoietin: erythropoietin treatment for anemia in MDS
patients with MDS in whom treatment may improve anemia (MDS patients): 15-20%

NLRP3 levels induced (normal BM-MNC [6]): 47.1 fold | a-caspase-1 levels induced (normal BM-MNC [6]): 2.5 fold | formation of NLRP3 inflammasomes (normal BM-MNC [6]): 2.9 fold
Compound: rhS100A9: Recombinant human S100A9, DAMP/alarmin protein, ligand for CD33 and TLR4, generated as previously described
reduction in Epo elaboration (HepG2 cells; HepG2, 1 μg/ml, 24 h exposure): 95% | Epo elaboration (HepG2 cells; HepG2, 10 to 20 μg/ml, 24 h exposure): completely suppressed | suppression of Epo production by the inflammatory protein alone (HepG2 cells): 95% | inflammasome complexes [5]: marked induction | MFI of NLRP3 ([5]; versus controls): significantly increased | MFI of a-caspase-1 ([5]; versus controls): significantly increased | increase in DNA damage (U937 cells [7]): 4.1 fold | levels of nuclear β-catenin (normal BM-MNC [4]; normal BM-MNC, 5 μg/mL rhS100A9, 24 hours, compared to controls): elevated levels | levels of NLRP3 inflammasome complexes (U937 cells [8]): markedly increased | increase in mean percentage of ROS-positive cells (U937 cells [9]): 2.9 fold | levels of nuclear (activated) β-catenin (U937 cells [10]): marked increases | activation of caspase-1 (U937 cells [11]; U937, 5 μg/mL rhS100A9 over time): time-dependent increase | a-caspase-1 MFI and percentage of a-caspase-1+ cells (U937 cells [11]; [14]): corresponding increase | fraction of pyroptotic cells (U937 cells [11]; [14]): concentration-dependent increase | expression of pyroptosis-associated genes (normal BM-MNC [12]): significantly up-regulated | uptake of ethidium bromide (U937 cells [13]): rapid and substantial uptake
